Assay results reported in the supplement of paper PMC4862054.

What was measured:
Assay in all cases: drug sensitivity score (DSS), CellTiter-Glo (DSS (AUC-based score)); higher = stronger drug effect (viability inhibition or cytotoxicity); extreme values may be limits of the assay
Settings in all cases: incubation time: 72 h
BT-474 = system: BT-474
How it was run: (§1)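 Compound was dispensed into 384-well plates at 5 concentrations in 10-fold steps spanning a 10,000-fold range chosen for each compound, and 20 µl of breast cancer cell suspension was added before 72 h of incubation. CellTox Green fluorescence was read at 485/520 nm, followed by CellTiter-Glo luminescence after 10 min at room temperature. Values on each plate were normalised to 0.1 % DMSO and a positive kill control. The drug sensitivity score came from the area under the fitted dose-response curve.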

BT-549 = system: BT-549
How it was run: as §1

CAL-120 = system: CAL-120
How it was run: as §1

CAL-148 = system: CAL-148
How it was run: as §1

CAL-51 = system: CAL-51
How it was run: as §1

CAL-85-1 = system: CAL-85-1
How it was run: as §1

HCC1937 = system: HCC1937
How it was run: as §1

Hs578T = system: Hs578T
How it was run: as §1

MDA-MB-231 = system: MDA-MB-231
How it was run: as §1

MDA-MB-468 = system: MDA-MB-468
How it was run: as §1

SK-BR-3 = system: SK-BR-3
How it was run: as §1

Compound	drug sensitivity score (BT-474)	drug sensitivity score (BT-549)	drug sensitivity score (CAL-120)	drug sensitivity score (CAL-148)	drug sensitivity score (CAL-51)	drug sensitivity score (CAL-85-1)	drug sensitivity score (HCC1937)	drug sensitivity score (Hs578T)	drug sensitivity score (MDA-MB-231)	drug sensitivity score (MDA-MB-468)	drug sensitivity score (SK-BR-3)
CC(=O)Nc1cccc(-n2c(=O)n(C3CC3)c(=O)c3c(Nc4ccc(I)cc4F)n(C)c(=O)c(C)c32)c1 [Trametinib]	5.25	0	5.16	0	0	6.58	3.49	2.9	5.25	1.05	0
Cc1cnc(NC(=O)Nc2cc(Br)c(C)cc2OC[C@@H]2CNCCO2)cn1 [Rabusertib]	0	0	0	0	0	0.115	0	1.2	0	0	1.38
C=CC(=O)N1CCC[C@@H](n2nc(-c3ccc(Oc4ccccc4)cc3)c3c(N)ncnc32)C1 [Ibrutinib]	0	0	0	0	2.76	2.66	0	0	0	0.811	17.4
C=CCc1cccc(/C=N/NC(=O)CN2CCN(Cc3ccccc3)CC2)c1O [PAC-1]	2.94	7.1	3.26	2.16	8.79	3	3.44	0	2.27	3.77	3.2
COc1cc2c(NC3CCN(C(C)C)CC3)nc(C3CCCCC3)nc2cc1OCCCN1CCCC1 [UNC0638]	6.49	6.76	6.05	5.21	7.71	5.07	5.15	0	6.74	8.02	6.09
O=C(/C=C/c1cccnc1)NCCCCC1CCN(C(=O)c2ccccc2)CC1 [Daporinad]	13.4	0	20.9	6.26	0	22	21.4	26.8	14.8	30	0
CC[C@H](Nc1ncnc2[nH]cnc12)c1nc2cccc(F)c2c(=O)n1-c1ccccc1 [GS-1101]	2.65	2.49	1.34	0	0	0	0	0	1.82	2.6	0
CNC(=O)c1cc(Oc2ccc(NC(=O)Nc3cc(C(C)(C)C)nn3-c3ccc4ncccc4c3)c(F)c2)ccn1 [Rebastinib]	0.877	0	2.56	0	0	0	0	0	0	0	0
CC[C@H](C)C(=O)O[C@H]1C[C@H](O)C=C2C=C[C@H](C)[C@H](CC[C@@H](O)C[C@@H](O)CC(=O)O)[C@H]21 [Pravastatin]	3.69	2.77	2.92	3.75	14.4	1.96	3.68	0	0	3.34	4.87
O=C(O)CCCCC(CCSCc1ccccc1)SCc1ccccc1 (stereo not given) [CPI-613]	0	0	0	0	0	0	0	0	0	0	0
